Where two headings read alike, the source gives them in different places.
Assays:
Experiment in all cases: KINOMEscan competitive binding
CLK1 = biological target: T1, CLK1 (Homo sapiens, UniProt P49759); details: 10 µM, n=1; kinase CLK1; read-out: Percent inhibition CLK1
T1 construct: purchased DiscoverX (KINOMEscan)
Source text: (§1) The kinases were expressed as fusions to T7 bacteriophage. This is a sensitive, competitive binding assay where test compounds were used to displace immobilized ATP-site binding probe ligands from kinases of interest. The amount of kinase that remained bound to the immobilized probe ligands on the solid support was quantified. Percentage inhibition data were was plotted on kinome trees using the web-based tool KinMap (http://www.kinhub.org/kinmap) ([60]).

LKB1 = biological target: T2, LKB1 (Homo sapiens, UniProt Q15831)
T2 construct: purchased DiscoverX (KINOMEscan)
T2 sequence (Q15831 1-433): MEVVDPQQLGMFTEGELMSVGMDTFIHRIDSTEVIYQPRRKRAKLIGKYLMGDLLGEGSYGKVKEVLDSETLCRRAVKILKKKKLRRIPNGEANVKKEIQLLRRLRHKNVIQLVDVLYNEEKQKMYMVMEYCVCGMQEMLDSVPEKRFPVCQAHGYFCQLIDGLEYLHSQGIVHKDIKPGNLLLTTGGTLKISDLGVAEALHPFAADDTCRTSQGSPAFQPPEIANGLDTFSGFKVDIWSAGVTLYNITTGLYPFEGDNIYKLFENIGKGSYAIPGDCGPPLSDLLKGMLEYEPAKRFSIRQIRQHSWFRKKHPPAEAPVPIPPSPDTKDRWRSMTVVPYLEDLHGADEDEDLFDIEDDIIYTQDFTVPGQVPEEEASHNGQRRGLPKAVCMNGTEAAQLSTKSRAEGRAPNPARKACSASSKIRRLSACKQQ
Source text: as §1

KIT = biological target: T3, KIT (Homo sapiens, UniProt P10721)
T3 construct: purchased DiscoverX (KINOMEscan)
T3 sequence (P10721 26-976): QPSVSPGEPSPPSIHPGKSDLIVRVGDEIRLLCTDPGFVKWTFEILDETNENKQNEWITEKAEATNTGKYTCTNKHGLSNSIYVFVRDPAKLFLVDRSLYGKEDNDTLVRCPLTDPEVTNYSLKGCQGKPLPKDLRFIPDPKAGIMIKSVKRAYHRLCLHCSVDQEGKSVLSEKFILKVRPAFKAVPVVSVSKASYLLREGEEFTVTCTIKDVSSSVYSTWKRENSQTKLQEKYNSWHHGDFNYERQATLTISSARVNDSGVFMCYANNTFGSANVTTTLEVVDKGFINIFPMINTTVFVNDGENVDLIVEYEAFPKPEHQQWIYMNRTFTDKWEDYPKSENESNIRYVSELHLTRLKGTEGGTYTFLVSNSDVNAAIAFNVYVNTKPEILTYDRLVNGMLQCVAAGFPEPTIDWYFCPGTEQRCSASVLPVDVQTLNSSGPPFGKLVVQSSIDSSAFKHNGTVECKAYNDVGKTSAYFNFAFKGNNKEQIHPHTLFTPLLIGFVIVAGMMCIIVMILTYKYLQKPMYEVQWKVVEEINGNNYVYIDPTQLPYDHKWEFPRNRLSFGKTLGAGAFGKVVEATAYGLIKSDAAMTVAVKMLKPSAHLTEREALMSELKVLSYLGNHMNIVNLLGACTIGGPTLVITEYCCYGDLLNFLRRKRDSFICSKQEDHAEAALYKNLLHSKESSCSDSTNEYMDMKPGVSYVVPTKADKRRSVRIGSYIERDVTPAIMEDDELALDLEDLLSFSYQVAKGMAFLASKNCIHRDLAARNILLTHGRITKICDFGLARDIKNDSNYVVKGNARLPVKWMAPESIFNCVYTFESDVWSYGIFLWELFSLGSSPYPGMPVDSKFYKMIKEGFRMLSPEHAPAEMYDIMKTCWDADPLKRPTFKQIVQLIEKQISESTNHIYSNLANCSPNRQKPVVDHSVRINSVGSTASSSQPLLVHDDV
Source text: as §1

CSNK1G1 = biological target: T4, CSNK1G1 (Homo sapiens, UniProt Q9HCP0); details: 10 µM, n=1; kinase CSNK1G1; read-out: Percent inhibition CSNK1G1
T4 construct: purchased DiscoverX (KINOMEscan)
T4 sequence (Q9HCP0 whole entry): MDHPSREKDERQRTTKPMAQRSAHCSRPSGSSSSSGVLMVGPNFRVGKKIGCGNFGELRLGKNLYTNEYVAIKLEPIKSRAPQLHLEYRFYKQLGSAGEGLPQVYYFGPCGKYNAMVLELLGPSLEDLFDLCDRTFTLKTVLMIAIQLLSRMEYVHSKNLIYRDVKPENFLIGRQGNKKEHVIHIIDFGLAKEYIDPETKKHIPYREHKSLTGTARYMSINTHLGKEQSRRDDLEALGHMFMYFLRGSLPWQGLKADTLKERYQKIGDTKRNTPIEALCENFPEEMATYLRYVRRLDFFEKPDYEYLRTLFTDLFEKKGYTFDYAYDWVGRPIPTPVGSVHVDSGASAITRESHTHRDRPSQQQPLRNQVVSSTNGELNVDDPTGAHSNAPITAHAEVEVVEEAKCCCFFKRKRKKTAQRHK
Source text: as §1

FLT1 = biological target: T5, FLT1 (Homo sapiens, UniProt P17948); details: for inhibition at 10 µM: n=1, kinase FLT1, read-out: Percent inhibition FLT1
T5 construct: purchased DiscoverX (KINOMEscan)
Source text: as §1

PRKCH = biological target: T6, PRKCH (Homo sapiens, UniProt P24723); details: n=1, read-out: Percent inhibition, PRKCH
T6 construct: purchased DiscoverX (KINOMEscan)
T6 sequence (P24723 whole entry): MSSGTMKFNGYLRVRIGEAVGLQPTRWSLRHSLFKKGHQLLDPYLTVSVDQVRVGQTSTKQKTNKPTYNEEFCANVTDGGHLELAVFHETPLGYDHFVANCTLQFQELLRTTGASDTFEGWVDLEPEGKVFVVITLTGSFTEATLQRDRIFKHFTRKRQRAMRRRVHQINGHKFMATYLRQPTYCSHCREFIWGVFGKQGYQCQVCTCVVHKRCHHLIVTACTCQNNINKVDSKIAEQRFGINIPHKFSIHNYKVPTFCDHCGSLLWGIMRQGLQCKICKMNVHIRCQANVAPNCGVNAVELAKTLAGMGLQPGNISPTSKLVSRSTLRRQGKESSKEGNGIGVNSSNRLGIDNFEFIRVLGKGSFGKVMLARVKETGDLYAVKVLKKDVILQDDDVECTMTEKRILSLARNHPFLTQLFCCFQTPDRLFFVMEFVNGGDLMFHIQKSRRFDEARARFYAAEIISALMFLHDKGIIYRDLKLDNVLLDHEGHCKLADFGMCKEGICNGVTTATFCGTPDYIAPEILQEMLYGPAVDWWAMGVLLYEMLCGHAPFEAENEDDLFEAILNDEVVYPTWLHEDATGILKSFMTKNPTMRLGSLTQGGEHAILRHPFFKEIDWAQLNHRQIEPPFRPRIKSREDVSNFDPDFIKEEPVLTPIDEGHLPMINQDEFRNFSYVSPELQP

TRKB = biological target: T7, TRKB (Homo sapiens, UniProt Q16620); details: n=1, read-out: Percent inhibition, TRKB
T7 construct: purchased DiscoverX (KINOMEscan)
T7 sequence (Q16620 32-822): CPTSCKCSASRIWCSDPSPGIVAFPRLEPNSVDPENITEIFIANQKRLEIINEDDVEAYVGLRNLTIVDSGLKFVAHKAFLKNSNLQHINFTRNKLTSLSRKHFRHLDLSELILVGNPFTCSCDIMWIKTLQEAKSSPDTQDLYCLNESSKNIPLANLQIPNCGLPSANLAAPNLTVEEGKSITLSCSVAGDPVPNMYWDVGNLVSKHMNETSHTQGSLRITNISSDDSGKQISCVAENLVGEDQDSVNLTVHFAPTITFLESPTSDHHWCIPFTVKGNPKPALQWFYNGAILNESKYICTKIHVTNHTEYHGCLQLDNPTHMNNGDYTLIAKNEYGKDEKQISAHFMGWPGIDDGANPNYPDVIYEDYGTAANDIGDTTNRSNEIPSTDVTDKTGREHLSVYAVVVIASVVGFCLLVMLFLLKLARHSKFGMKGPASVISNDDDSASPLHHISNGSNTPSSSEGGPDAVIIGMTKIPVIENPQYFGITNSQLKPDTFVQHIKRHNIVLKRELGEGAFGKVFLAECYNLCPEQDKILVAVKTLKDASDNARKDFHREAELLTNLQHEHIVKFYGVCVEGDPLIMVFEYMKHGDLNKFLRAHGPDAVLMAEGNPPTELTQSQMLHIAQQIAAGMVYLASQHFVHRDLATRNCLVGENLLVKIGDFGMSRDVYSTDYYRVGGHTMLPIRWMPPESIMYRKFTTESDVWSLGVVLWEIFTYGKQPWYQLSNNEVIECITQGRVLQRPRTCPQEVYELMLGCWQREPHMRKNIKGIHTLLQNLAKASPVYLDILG

PHKG1 = biological target: T8, PHKG1 (Homo sapiens, UniProt Q16816); details: n=1, read-out: Percent inhibition, PHKG1
T8 construct: purchased DiscoverX (KINOMEscan)
T8 sequence (Q16816 whole entry): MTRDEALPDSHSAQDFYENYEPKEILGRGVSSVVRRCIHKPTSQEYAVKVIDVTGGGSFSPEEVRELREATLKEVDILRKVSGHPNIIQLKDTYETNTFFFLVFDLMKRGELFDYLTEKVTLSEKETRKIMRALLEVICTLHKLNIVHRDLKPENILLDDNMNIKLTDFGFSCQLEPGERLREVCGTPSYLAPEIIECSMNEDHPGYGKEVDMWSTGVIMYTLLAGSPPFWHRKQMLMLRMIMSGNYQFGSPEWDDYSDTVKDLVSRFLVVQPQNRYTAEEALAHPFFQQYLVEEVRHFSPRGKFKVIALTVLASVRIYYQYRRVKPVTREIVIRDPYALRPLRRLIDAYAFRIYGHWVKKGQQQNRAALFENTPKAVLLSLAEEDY

SYK = biological target: T9, SYK (Homo sapiens, UniProt P43405); details: n=1, read-out: Percent inhibition, SYK
T9 construct: purchased DiscoverX (KINOMEscan)

RPS6KA6(Kin.Dom.1) = biological target: T10, RPS6KA6(Kin.Dom.1) (Homo sapiens, UniProt Q9UK32); details: n=1, read-out: Percent inhibition, RPS6KA6(Kin.Dom.1)
T10 construct: RPS6KA6(Kin.Dom.1); purchased DiscoverX (KINOMEscan)
T10 sequence (Q9UK32 1-400 limits assumed): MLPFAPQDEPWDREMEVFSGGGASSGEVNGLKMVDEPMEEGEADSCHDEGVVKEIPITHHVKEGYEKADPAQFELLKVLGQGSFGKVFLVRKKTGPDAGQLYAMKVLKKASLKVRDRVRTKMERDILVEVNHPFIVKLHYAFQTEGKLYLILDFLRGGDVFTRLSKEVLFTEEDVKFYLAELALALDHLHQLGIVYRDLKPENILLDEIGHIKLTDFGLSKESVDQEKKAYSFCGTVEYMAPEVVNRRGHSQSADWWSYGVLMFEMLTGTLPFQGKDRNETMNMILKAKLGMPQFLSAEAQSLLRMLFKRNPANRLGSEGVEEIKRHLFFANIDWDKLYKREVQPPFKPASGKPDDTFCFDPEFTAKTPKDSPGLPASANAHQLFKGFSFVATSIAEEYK

PKAC-beta = biological target: T11, PKAC-beta (Homo sapiens, UniProt P22694); details: n=1, read-out: Percent inhibition, PKAC-beta
T11 construct: purchased DiscoverX (KINOMEscan)

RPS6KA3(Kin.Dom.1) = biological target: T12, RPS6KA3(Kin.Dom.1) (Homo sapiens, UniProt P51812); details: n=1, read-out: Percent inhibition, RPS6KA3(Kin.Dom.1)
T12 construct: RPS6KA3(Kin.Dom.1); purchased DiscoverX (KINOMEscan)

RIPK2 = biological target: T13, RIPK2 (Homo sapiens, UniProt O43353); details: n=1, read-out: Percent inhibition, RIPK2
T13 construct: purchased DiscoverX (KINOMEscan)
T13 sequence (O43353 whole entry): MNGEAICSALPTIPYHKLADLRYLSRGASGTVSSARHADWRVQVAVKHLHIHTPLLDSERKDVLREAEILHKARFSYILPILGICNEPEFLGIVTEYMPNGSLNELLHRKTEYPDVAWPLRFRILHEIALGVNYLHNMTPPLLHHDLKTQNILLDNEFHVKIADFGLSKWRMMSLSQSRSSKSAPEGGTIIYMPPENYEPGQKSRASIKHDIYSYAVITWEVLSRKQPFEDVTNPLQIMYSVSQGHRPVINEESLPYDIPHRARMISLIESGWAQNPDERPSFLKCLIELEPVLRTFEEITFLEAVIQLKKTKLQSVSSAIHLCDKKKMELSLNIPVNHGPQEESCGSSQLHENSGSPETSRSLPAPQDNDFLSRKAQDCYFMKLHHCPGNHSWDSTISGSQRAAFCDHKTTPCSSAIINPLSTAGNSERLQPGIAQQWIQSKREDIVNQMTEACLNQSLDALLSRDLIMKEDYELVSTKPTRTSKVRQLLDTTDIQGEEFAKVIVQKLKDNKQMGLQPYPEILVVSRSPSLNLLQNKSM

PRKG1 = biological target: T14, PRKG1 (Homo sapiens, UniProt Q13976); details: n=1, read-out: Percent inhibition, PRKG1
T14 construct: purchased DiscoverX (KINOMEscan)
T14 sequence (Q13976 1-671): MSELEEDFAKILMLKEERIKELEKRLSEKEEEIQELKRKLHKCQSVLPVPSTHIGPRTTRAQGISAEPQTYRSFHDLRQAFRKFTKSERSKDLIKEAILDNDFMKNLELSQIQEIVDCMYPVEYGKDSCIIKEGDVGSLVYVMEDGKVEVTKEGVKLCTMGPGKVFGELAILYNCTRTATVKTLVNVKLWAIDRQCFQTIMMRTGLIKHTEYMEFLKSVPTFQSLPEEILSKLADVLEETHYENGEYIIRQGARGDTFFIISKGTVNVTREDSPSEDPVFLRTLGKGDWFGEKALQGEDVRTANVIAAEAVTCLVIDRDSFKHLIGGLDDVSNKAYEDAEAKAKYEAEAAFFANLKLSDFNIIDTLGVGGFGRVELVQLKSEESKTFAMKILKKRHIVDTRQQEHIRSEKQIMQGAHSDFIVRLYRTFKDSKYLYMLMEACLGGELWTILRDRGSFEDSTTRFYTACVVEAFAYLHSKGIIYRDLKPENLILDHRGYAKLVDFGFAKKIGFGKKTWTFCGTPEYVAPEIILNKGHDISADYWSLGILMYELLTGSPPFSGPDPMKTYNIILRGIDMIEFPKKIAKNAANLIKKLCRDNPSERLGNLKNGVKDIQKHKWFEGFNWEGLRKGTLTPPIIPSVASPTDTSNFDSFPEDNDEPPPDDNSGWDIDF

TYK2(Kin.Dom.2) = biological target: T15, TYK2(Kin.Dom.2) (Homo sapiens, UniProt P29597); details: n=1, read-out: Percent inhibition, TYK2(Kin.Dom.2)
T15 construct: TYK2(Kin.Dom.2); purchased DiscoverX (KINOMEscan)
T15 sequence (P29597 889-1187 limits assumed): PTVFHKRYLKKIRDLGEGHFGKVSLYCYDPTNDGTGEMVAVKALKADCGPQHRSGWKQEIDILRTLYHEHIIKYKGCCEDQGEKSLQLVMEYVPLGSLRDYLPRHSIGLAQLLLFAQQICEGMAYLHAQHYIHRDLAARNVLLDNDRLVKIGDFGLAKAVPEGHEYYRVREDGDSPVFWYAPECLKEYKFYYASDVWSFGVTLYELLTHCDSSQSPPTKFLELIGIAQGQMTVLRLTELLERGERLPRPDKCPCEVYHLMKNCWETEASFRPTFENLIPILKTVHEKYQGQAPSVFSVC

PLK3 = biological target: T16, PLK3 (Homo sapiens, UniProt Q9H4B4); details: n=1, read-out: Percent inhibition, PLK3
T16 construct: purchased DiscoverX (KINOMEscan)

[1] = 10 µM, n=1, kinase LKB1, read-out: Percent inhibition LKB1
[2] = 10 µM, n=1, kinase KIT, read-out: Percent inhibition KIT

T1 sequence (P49759 whole entry): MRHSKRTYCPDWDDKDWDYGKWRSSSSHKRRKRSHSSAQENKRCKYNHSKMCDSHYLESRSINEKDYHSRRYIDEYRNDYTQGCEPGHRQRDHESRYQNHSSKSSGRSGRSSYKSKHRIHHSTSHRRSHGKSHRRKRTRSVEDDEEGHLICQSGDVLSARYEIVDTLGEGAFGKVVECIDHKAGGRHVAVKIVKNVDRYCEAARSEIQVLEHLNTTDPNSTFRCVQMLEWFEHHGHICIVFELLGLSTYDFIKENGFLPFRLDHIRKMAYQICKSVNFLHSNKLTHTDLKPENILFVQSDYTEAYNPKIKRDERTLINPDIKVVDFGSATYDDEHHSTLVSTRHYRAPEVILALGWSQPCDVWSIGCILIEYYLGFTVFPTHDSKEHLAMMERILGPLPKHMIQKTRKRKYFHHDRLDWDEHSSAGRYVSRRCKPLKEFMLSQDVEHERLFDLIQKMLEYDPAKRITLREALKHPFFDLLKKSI

| SMILES | inhibition at 10 µM (CLK1) [%] | inhibition at 10 µM (LKB1; [1]) [%] | inhibition at 10 µM (KIT; [2]) [%] | inhibition at 10 µM (CSNK1G1) [%] | inhibition at 10 µM (FLT1) [%] | inhibition at 10 µM (PRKCH) [%] | inhibition at 10 µM (TRKB) [%] | inhibition at 10 µM (PHKG1) [%] | inhibition at 10 µM (SYK) [%] | inhibition at 10 µM (RPS6KA6(Kin.Dom.1)) [%] | inhibition at 10 µM (PKAC-beta) [%] | inhibition at 10 µM (RPS6KA3(Kin.Dom.1)) [%] | inhibition at 10 µM (RIPK2) [%] | inhibition at 10 µM (PRKG1) [%] | inhibition at 10 µM (TYK2(Kin.Dom.2)) [%] | inhibition at 10 µM (PLK3) [%] | inhibition at 10 µM (KIT; 10 μM, n = 1, read-out: percent inhibition KIT) [%] | inhibition of FLT1, in words (FLT1; kinome profiling, 10 μM) | inhibition at 10 µM (LKB1; 10 μM, n = 1, read-out: percent inhibition LKB1) [%] |
| --- | --- | --- | --- | --- | --- | --- | --- | --- | --- | --- | --- | --- | --- | --- | --- | --- | --- | --- | --- |
| C[C@@H](Oc1cc(-c2cnc3ccccn23)sc1C(N)=O)c1ccccc1Cl [Compound 8] | 92.7 | 98.3 | 0 | 0 | 70 | 0 | 0 | 0 | 0 | 0 | 0 | 0 | 0 | 0 | 0 | 95.6 | – | – | – |
| Cc1ccc(O)cc1N(C)c1ccnc(Nc2cccc(S(N)(=O)=O)c2)n1 [Compound 4] | 0 | 77.3 | 100 | 0 | 99.4 | 0 | 91.7 | 0 | 98.7 | 0 | 77.8 | 0 | 100 | 0 | 95.6 | 0 | – | – | – |
| COc1cc(Nc2nccc(-c3sc(N)nc3-c3cccc(NC(=O)c4c(F)cccc4F)c3)n2)cc(OC)c1OC [Compound 7] | 0 | 0 | 100 | 0 | 99.2 | 87.7 | 0 | 0 | 98.9 | 83.2 | 0 | 99.8 | 100 | 0 | 97.2 | 99.8 | – | – | – |
| CN1CCN(c2ccc(Nc3nccc(-c4cnn5ncccc45)n3)cc2C#N)CC1 [Compound 1] | 99.9 | 100 | 100 | 100 | 99.9 | 83.4 | 96.5 | 88.3 | 78.3 | 0 | 0 | 86 | 90.6 | 0 | 88.2 | 0 | – | – | – |
| Fc1cccc(COc2ccc(Nc3ncnc4c3CN(CCN3CCOCC3)CC4)cc2Cl)c1 [Compound 6] | 0 | 0 | 0 | 0 | 0 | 0 | 0 | 0 | 0 | 0 | 0 | 0 | 0 | 0 | 0 | 0 | – | – | – |
| Cc1ccc(O)cc1Nc1ccnc(Nc2cccc(C(N)=O)c2)n1 [Compound 3] | 0 | 74.3 | 100 | 82.5 | 98.3 | 0 | 0 | 0 | – | 0 | 0 | 0 | 100 | 0 | 94 | 79 | – | – | – |
| Clc1ccc(Nc2ncc(-c3ccccc3)s2)cc1 [Compound 10] | 0 | 67.6 | 99 | 0 | 0 | 0 | 0 | 0 | 0 | 0 | 0 | 0 | 0 | 0 | 0 | 0 | > 99 | relatively weak inhibition | – |
| COc1ccc(Nc2nccc(-c3cnn4ncccc34)n2)cc1 [Compound 2] | 99.8 | 96.1 | 100 | 75.9 | 99.5 | 0 | 0 | 0 | 80.9 | 0 | 0 | 0 | 0 | 0 | 0 | 0 | – | – | – |
| c1ccc(COc2cccc(-c3ccnc4[nH]ccc34)c2)cc1 [Compound 9] | 0 | 99.5 | 0 | 0 | 0 | 87.9 | 0 | 0 | 0 | 0 | 0 | 0 | 0 | 0 | 0 | 0 | – | – | ≥ 99 |

From paper PMC9927415, “Tyrosine Kinase Inhibitors Display Potent Activity against Cryptosporidium parvum” (Microbiology Spectrum, 2022)
